Tested on: 966289-007-R4-J1-PDC complex spheroid viability
Assay: Anticancer human tumor 966289-007-R4-J1-PDC patient-derived pancreatic adenocarcinoma cell line growth inhibition [GQUAD]
Settings: for IC50: curve of first compound; for viability, T/C: stronger effect = lower value; active means viability on the fitted dose curve at most 10% of control; inactive means the rest
Text: DNA G-quadruplex Stabilizer Agents in Combinations in Complex Spheroids
A high-throughput screen of multi-cell type tumor spheroids was designed to identify active combinations of DNA G-quadruplex stabilizer agents and targeted small molecules. Complex spheroids include a stromal component modeled by human endothelial cells (HUVEC) and fibroblasts modeled by human mesenchymal stem cells (MSCs). The concentration ranges selected for each drug and investigational agent were based upon clinically achievable concentrations if the clinical Cmax of the agent was known.
Compounds. The drugs and investigational agents: pidnarulex (CX-5461; NSC782164), APTO-253 (NSC789042), BRACO-19 (NSC847499), peposertib (NSC802822), ceralasertib (NSC780249), elimusertib (NSC800525), camonsertib (NSC841442), AZD-1390 (NSC803789), olaparib (NSC753686), talazoparib (NSC767125), ART-558 (NSC835418), sotorasib (NSC818433), MRTX-1133 (NSC836407), SN-38 (NSC673596), topotecan (NSC609699), etoposide (NSC141540), doxorubicin (NSC123127), gemcitabine (NSC613327), 5-fluorouracil (NSC19893), paclitaxel (NSC125973), vemurafenib (NSC761431), panobinostat (NSC761190), R-306465 (JNJ-16241199; NSC773264), adavosertib (NSC754352), TP-3654 (NSC805149), carboplatin (NSC241240), KSQ-4279 (NSC840948), and staurosporine (NSC755774) were obtained from the National Cancer Institute (NCI) Developmental Therapeutics Program Chemical Repository (34). The FDA-approved anticancer drug set is available from the NCI Developmental Therapeutics Program. […] The stock solutions were prepared in dimethyl sulfoxide (DMSO, Sigma-Aldrich, St. Louis, MO, cat. D2650) at 800-fold the tested concentration and stored at -70 degrees C prior to their use. All drugs and investigational agents were tested over a range starting from a high concentration at or near the clinical Cmax and decreasing in half-log increments. If the clinical Cmax for an agent had not been determined, the highest concentration tested was 10 microM.
2.3 Cell Culture. All cells were maintained in an incubator at 37 degrees C and 5% CO2 with 95% humidity. The PDC lines were cultured according to standard operating procedures established by the NCI PDMR. All PDCs were thawed and cultured in Matrigel-coated flasks prepared with a working solution of 1X Ham's F-12 nutrient mix, without supplementation (Invitrogen, cat. 11765054), 100 U/mL penicillin-streptomycin (Invitrogen, cat. 15140122), and 2.5% Matrigel (Corning Inc., cat. 354248) for the first three passages. The 857933-349-R-J2-PDC line was cultured in 6C/Colon 1B media, which includes advanced DMEM/F-12 (Thermo Fisher Scientific, cat. 12634028), 10 mM HEPES (Thermo Fisher Scientific, cat. 15630080), 1X GlutaMAX supplement (Thermo Fisher Scientific, cat. 35050061), 0.1 mg/mL primocin (InvivoGen, cat. ant-pm-2), 10% defined fetal bovine serum, heat inactivated (HyClone Laboratories Inc., cat. SH30070.03HI), 50% L-WRN conditioned media (ATCC, cat. CRL-3276), 1.25 mM N-Acetyl-L-cysteine (Sigma-Aldrich, cat. A9165), 10 mM nicotinamide (Sigma-Aldrich, cat. N0636), 1X B-27 supplement (Thermo Fisher Scientific, cat. 17504044), 1X N-2 supplement (Thermo Fisher Scientific, cat. 17502048), 10 microM Y-27632 dihydrochloride (Tocris Bioscience, cat. 1254), and 50 ng/mL human EGF recombinant protein (Thermo Fisher Scientific, cat. PHG0311). The 485176-168-R4-J1-PDC line was cultured in Panc media, which includes all 6C/Colon 1B media components plus 100 ng/mL human FGF-10 (Thermo Fisher Scientific, cat. 100-26), 500 nM SB-431542 (Selleckchem, cat. S1067), and gastrin (Tocris, cat. 3006).
[…]

[1] = second compound 0.0316 µM, first compound 0.0316 µM
[2] = second compound 0.0316 µM, first compound 0.1 µM
[3] = second compound 0.0316 µM, first compound 0.316 µM
[4] = second compound 0.0316 µM, first compound 1 µM
[5] = second compound 0.0316 µM, first compound 3.16 µM
[6] = second compound 0.0316 µM, first compound 10 µM
[7] = second compound 0.1 µM, first compound 0.0316 µM
[8] = second compound 0.1 µM, first compound 0.1 µM
[9] = second compound 0.1 µM, first compound 0.316 µM
[10] = second compound 0.1 µM, first compound 1 µM
[11] = second compound 0.1 µM, first compound 3.16 µM
[12] = second compound 0.1 µM, first compound 10 µM
[13] = second compound 0.316 µM, first compound 0.0316 µM
[14] = second compound 0.316 µM, first compound 0.1 µM
[15] = second compound 0.316 µM, first compound 0.316 µM
[16] = second compound 0.316 µM, first compound 1 µM
[17] = second compound 0.316 µM, first compound 3.16 µM
[18] = second compound 0.316 µM, first compound 10 µM
[19] = second compound 1 µM, first compound 0.0316 µM
[20] = second compound 1 µM, first compound 0.1 µM
[21] = second compound 1 µM, first compound 0.316 µM
[22] = second compound 1 µM, first compound 1 µM
[23] = second compound 1 µM, first compound 3.16 µM
[24] = second compound 1 µM, first compound 10 µM
[25] = second compound 3.16 µM, first compound 0.0316 µM
[26] = second compound 3.16 µM, first compound 0.1 µM
[27] = second compound 3.16 µM, first compound 0.316 µM
[28] = second compound 3.16 µM, first compound 1 µM
[29] = second compound 3.16 µM, first compound 3.16 µM
[30] = second compound 3.16 µM, first compound 10 µM
[31] = second compound 10 µM, first compound 0.0316 µM
[32] = second compound 10 µM, first compound 0.1 µM
[33] = second compound 10 µM, first compound 0.316 µM
[34] = second compound 10 µM, first compound 1 µM
[35] = second compound 10 µM, first compound 3.16 µM
[36] = second compound 10 µM, first compound 10 µM
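Further: spheroids exposed to the agents for seven days before readout.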
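Wherever viability, T/C is given: percent viability relative to DMSO vehicle control wells taken as 100%.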

CC(C)n1c(=O)n(C)c2cnc3cc(F)c(-c4ccc(OCCCN5CCCCC5)nc4)cc3c21 + Cc1[nH]c2ccc(F)cc2c1-c1nc2c3cccnc3c3ncccc3c2[nH]1
inactive: viability, T/C [1] 112% | viability, T/C [2] 101% | viability, T/C [3] 110% | viability, T/C [4] 101% | viability, T/C [5] 109% | viability, T/C [6] 82.4% | viability, T/C [7] 104% | viability, T/C [8] 101% | viability, T/C [9] 109% | viability, T/C [10] 105% | viability, T/C [11] 110% | viability, T/C [12] 89.1% | viability, T/C [13] 99.8% | viability, T/C [14] 110% | viability, T/C [15] 106% | viability, T/C [16] 111% | viability, T/C [17] 105% | viability, T/C [18] 85.9% | viability, T/C [19] 104% | viability, T/C [20] 108% | viability, T/C [21] 109% | viability, T/C [22] 109% | viability, T/C [23] 109% | viability, T/C [24] 85.5% | viability, T/C [25] 102% | viability, T/C [26] 107% | viability, T/C [27] 110% | viability, T/C [28] 104% | viability, T/C [29] 105% | viability, T/C [30] 62.2% | viability, T/C [31] 103% | viability, T/C [32] 104% | viability, T/C [33] 107% | viability, T/C [34] 104% | viability, T/C [35] 94.9% | viability, T/C [36] 61.8%
> 10000 nM: IC50 (second compound 0.0316 µM) | IC50 (second compound 0.1 µM) | IC50 (second compound 0.316 µM) | IC50 (second compound 1 µM) | IC50 (second compound 3.16 µM) | IC50 (second compound 10 µM)

CC1COCCN1c1cc(-c2ccnn2C)c2ccnc(-c3ccn[nH]3)c2n1 (centres undefined) + Cc1[nH]c2ccc(F)cc2c1-c1nc2c3cccnc3c3ncccc3c2[nH]1
177 nM: IC50 (second compound 1 µM)
170 nM: IC50 (second compound 0.0316 µM)
161 nM: IC50 (second compound 0.1 µM)
inactive: viability, T/C [1] 114% | viability, T/C [2] 77.8% | viability, T/C [3] 17.3% | viability, T/C [7] 115% | viability, T/C [8] 73.2% | viability, T/C [9] 17% | viability, T/C [13] 110% | viability, T/C [14] 80.3% | viability, T/C [15] 15.6% | viability, T/C [19] 105% | viability, T/C [20] 78.1% | viability, T/C [21] 21.1% | viability, T/C [25] 94.4% | viability, T/C [26] 39.3% | viability, T/C [31] 96.4% | viability, T/C [32] 28.4%
79.9 nM: IC50 (second compound 3.16 µM)
active: viability, T/C [4] 5.52% | viability, T/C [5] 4.65% | viability, T/C [6] 3.39% | viability, T/C [10] 6.08% | viability, T/C [11] 4.45% | viability, T/C [12] 3% | viability, T/C [16] 7.15% | viability, T/C [17] 4.49% | viability, T/C [18] 3.06% | viability, T/C [22] 8.54% | viability, T/C [23] 5.16% | viability, T/C [24] 2.92% | viability, T/C [27] 8.27% | viability, T/C [28] 7.24% | viability, T/C [29] 5.24% | viability, T/C [30] 4.9% | viability, T/C [33] 5.29% | viability, T/C [34] 5.42% | viability, T/C [35] 5.48% | viability, T/C [36] 5.5%
172 nM: IC50 (second compound 0.316 µM)
69.3 nM: IC50 (second compound 10 µM)

Reference: PubChem BioAssay AID2060488 (Molecular Pharmacology Branch, DTP, NCI, 2025)
